In one test the target is T1, Human PKMYT1 (Homo sapiens, UniProt Q99640).
T1 construct: Human PKMYT1 75-362 was cloned as a TEV cleavable 6xHis fusion; 6xHis (TEV cleavable) (cleaved yes); made in house; host or cells: bacterial cells
T1 sequence (Q99640 75-362): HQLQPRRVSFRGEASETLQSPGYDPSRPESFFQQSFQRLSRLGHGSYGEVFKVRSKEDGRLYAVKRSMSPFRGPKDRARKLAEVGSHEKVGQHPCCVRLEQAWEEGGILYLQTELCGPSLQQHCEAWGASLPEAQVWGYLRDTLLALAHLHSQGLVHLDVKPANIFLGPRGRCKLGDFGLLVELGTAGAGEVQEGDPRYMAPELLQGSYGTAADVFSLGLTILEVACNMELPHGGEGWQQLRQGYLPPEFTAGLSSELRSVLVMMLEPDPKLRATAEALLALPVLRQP
In words: PKMYT1 biochemical ADP-Glo enzymatic assay. The settings on record: ADP-Glo. The procedure, abridged:
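Measures inhibition of PKMYT1 autonomous ATP hydrolysis: bacterially expressed human enzyme (75-362, tag cleaved) at 15 nM with 500 µM ATP for 60 min at 26 °C, then ADP-Glo Max detection. IC50s accepted only when replicates agreed within 3-fold and curve r2 exceeded 0.9.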

The next test concerns the target T2, WEE1 (Homo sapiens, UniProt P30291).
T2 construct: purchased Thermo Fisher PR7373A
In words: Selectivity versus WEE1 assay (ADP-Glo enzymatic assay). The settings on record: for IC50: ADP-Glo; for PKMYT1 vs. WEE1 selectivity: fold difference in selectivity for PKMYT1 over WEE1. It counts as biochemical. The procedure, abridged: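 Same format as the PKMYT1 assay: WEE1 at 15 nM final with 30 µM ATP, 60 min at 26° C, ADP-Glo luminescence detection, IC50 by dose-response fitting.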

Setting [1] is: PKMYT1 kinase domain 15 nM, banded values.
Setting [2] is: 15 nM PKMYT1 kinase domain, 500 µM ATP, 60 minutes at 26° C., banded.
Setting [3] is: 15 nM WEE1, 60 minutes at 26° C., banded.
[4] abbreviates: banded, ">N" = at least in this band but could be higher.

T2 sequence (P30291 whole entry): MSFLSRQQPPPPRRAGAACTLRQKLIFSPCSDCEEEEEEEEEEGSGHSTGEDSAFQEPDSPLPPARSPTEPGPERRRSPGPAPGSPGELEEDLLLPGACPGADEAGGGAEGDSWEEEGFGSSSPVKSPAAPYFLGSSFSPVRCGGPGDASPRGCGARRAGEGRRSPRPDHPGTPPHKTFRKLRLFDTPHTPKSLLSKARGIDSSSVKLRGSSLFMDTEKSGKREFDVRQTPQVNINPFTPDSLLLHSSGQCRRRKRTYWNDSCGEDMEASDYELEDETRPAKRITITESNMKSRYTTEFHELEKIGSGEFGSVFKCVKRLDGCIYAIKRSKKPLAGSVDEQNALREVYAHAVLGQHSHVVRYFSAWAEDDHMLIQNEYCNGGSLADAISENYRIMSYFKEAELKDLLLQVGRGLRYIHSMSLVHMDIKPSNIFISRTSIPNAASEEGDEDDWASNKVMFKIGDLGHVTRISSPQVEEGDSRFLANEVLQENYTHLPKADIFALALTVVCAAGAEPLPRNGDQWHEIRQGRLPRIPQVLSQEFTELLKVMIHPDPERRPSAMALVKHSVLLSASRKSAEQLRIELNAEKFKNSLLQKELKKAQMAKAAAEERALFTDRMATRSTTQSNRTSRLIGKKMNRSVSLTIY

In the case of `Cc1ccc(O)c(C)c1NC(=O)c1cnc(Nc2cccc3ncsc23)s1` [BAA-485, 2-(benzo[d]thiazol-7-ylamino)-N-(3-hydroxy-2,6-dimethylphenyl)thiazole-5-carboxamide], the IC50 at Human PKMYT1 (setting [1]) is under 0.05 µM; against WEE1 (WEE1 15 nM, banded values), over 11 µM. In addition, the “PKMYT1 vs. WEE1 selectivity” value at WEE1 (banded) was “X (100-<1000 fold)”.
On the same counts, the results for `CCN(CC)C(=O)c1cc(Nc2ncc(C(=O)Nc3c(C)ccc(O)c3C)s2)nn1C` [BAA-545, 2-((5-(diethylcarbamoyl)-1-methyl-1H-pyrazol-3-yl)amino)-N-(3-hydroxy-2,6-dimethylphenyl)thiazole-5-carboxamide] are 0.05 to 1 µM, 1 to 11 µM and “W (10-<100 fold)”.
As to `Cc1ccc(O)c(C)c1NC(=O)c1cnc(NCc2ccccc2C2CC2)s1` [BAA-356, 2-((2-cyclopropylbenzyl)amino)-N-(3-hydroxy-2,6-dimethylphenyl)thiazole-5-carboxamide], the IC50 on Human PKMYT1 (setting [2]) is 1 to 11 µM; against WEE1 (setting [3]) it was over 11 µM. Further, the “PKMYT1 vs. WEE1 selectivity” value at WEE1 (setting [4]) is “W (10-<100 fold)”.
On to `Cc1ccc(O)c(C)c1NC(=O)c1cnc(Nc2cc3n(n2)CCN(C)C3=O)s1` [BAA-250, N-(3-hydroxy-2,6-dimethylphenyl)-2-((5-methyl-4-oxo-4,5,6,7-tetrahydropyrazolo[1,5-a]pyrazin-2-yl)amino)thiazole-5-carboxamide], for which the IC50 at Human PKMYT1 (setting [2]) was under 0.05 µM; at WEE1 (setting [3]) it was over 11 µM. Also, the “PKMYT1 vs. WEE1 selectivity” value on WEE1 (setting [4]) is given as “X (100-<1000 fold)”.
Turning to `Cc1ccc(O)c(C)c1NC(=O)c1cnc(Nc2cnn(CC(=O)N3CCCC3)c2)s1` [BAA-527, N-(3-hydroxy-2,6-dimethylphenyl)-2-((1-(2-oxo-2-(pyrrolidin-1-yl)ethyl)-1H-pyrazol-4-yl)amino)thiazole-5-carboxamide], the IC50 against Human PKMYT1 (setting [1]) is 0.05 to 1 µM; on WEE1 (WEE1 15 nM, banded values), over 11 µM. At WEE1 (banded), the “PKMYT1 vs. WEE1 selectivity” value is “W (10-<100 fold)”.
Take `Cc1cn(CC(=O)N(C)CCO)nc1Nc1ncc(C(=O)Nc2c(C)ccc(O)c2C)s1` [BAA-524, N-(3-Hydroxy-2.6-dimethylphenyl)-2-((1-(2-((2-hydroxyethyl)(methyl)amino)-2-oxoethyl)-4-methyl-1H-pyrazol-3-yl)amino)thiazole-5-carboxamide]: the IC50 was under 0.05 µM against Human PKMYT1 (setting [1]) and over 11 µM on WEE1 (WEE1 15 nM, banded values). Also, the “PKMYT1 vs. WEE1 selectivity” value at WEE1 (banded) was “Y (1000-5000 fold)”.
For the compound `Cc1ccc(O)c(C)c1NC(=O)c1cnc(Nc2ccn(CC(=O)N3CCC(F)(F)C3)n2)s1` [BAA-176], the IC50 at Human PKMYT1 (setting [2]) was under 0.05 µM; against WEE1 (setting [3]) it was over 11 µM. Further, the “PKMYT1 vs. WEE1 selectivity” value at WEE1 (setting [4]) is given as “Y (1000-5000 fold)”.
Consider `Cc1cncc(Nc2ncc(C(=O)Nc3c(C)ccc(O)c3C)s2)n1` [BAA-570, N-(3-hydroxy-2,6-dimethylphenyl)-2-((6-methylpyrazin-2-yl)amino)thiazole-5-carboxamide], for which the IC50 against Human PKMYT1 (setting [1]) is under 0.05 µM; against WEE1 (WEE1 15 nM, banded values) it was over 11 µM. Also, the “PKMYT1 vs. WEE1 selectivity” value on WEE1 (banded) was “X (100-<1000 fold)”.
As for `Cc1ccc(O)c(C)c1NC(=O)c1cnc(Nc2ccn(CC(=O)N3C[C@@H]4C[C@H]3CN4C(=O)OC(C)(C)C)n2)s1` [BAA-143], the IC50 on Human PKMYT1 (setting [2]) was under 0.05 µM; against WEE1 (setting [3]) it was over 11 µM. The “PKMYT1 vs. WEE1 selectivity” value on WEE1 (setting [4]) is “Y (1000-5000 fold)”.
On to `Cc1ccc(O)c(C)c1NC(=O)c1cnc(Nc2ccn(CC(=O)NC[C@@H](C)O)n2)s1` [BAA-170, N-(3-hydroxy-2,6-dimethyl-phenyl)-2-[[1-[2-[[(2R)-2-hydroxypropyl]amino]-2-oxo-ethyl]pyrazol-3-yl]amino]thiazole-5-carboxamide], for which the IC50 on Human PKMYT1 (setting [2]) is under 0.05 µM; against WEE1 (setting [3]) it was over 11 µM. On WEE1 (setting [4]), the “PKMYT1 vs. WEE1 selectivity” value is reported as “Y (1000-5000 fold)”.
Regarding `Cc1ccc(O)c(C)c1NC(=O)c1cnc(Nc2nn(-c3ccccc3)cc2C#N)s1` [BAA-389, 2-((4-cyano-1-phenyl-1H-pyrazol-3-yl)amino)-N-(3-hydroxy-2,6-dimethylphenyl)thiazole-5-carboxamide], the figures for the IC50 against Human PKMYT1 (setting [2]) and on WEE1 (setting [3]) were under 0.05 µM and over 11 µM, respectively. Besides, the “PKMYT1 vs. WEE1 selectivity” value at WEE1 (setting [4]) is on record as “Y (1000-5000 fold)”.
Taken in the same sequence, the figures for `CNC(=O)c1cc(Nc2ncc(C(=O)Nc3c(C)ccc(O)c3C)s2)nn1C` [BAA-119, N-(3-hydroxy-2,6-dimethyl-phenyl)-2-[[1-methyl-5-(methylcarbamoyl)pyrazol-3-yl]amino]thiazole-5-carboxamide] were 0.05 to 1 µM, over 11 µM and “X (100-<1000 fold)”.
Taken in the same sequence, the figures for `Cc1ccc(O)c(C)c1NC(=O)c1cnc(Nc2cccc(S(=O)(=O)C(F)(F)F)c2)s1` [BAA-284, N-(3-hydroxy-2,6-dimethylphenyl)-2-((3-((trifluoromethyl)sulfonyl)phenyl)amino) thiazole-5-carboxamide] were 1 to 11 µM, over 11 µM and “W (10-<100 fold)”.
Regarding `Cc1nc(CNc2ncc(C(=O)Nc3c(C)ccc(O)c3C)s2)no1` [BAA-364, N-(3-hydroxy-2,6-dimethylphenyl)-2-(((5-methyl-1,2,4-oxadiazol-3-yl)methyl)amino) thiazole-5-carboxamide], the values for the IC50 on Human PKMYT1 (setting [2]) and on WEE1 (setting [3]) were 1 to 11 µM and over 11 µM, respectively. Further, the “PKMYT1 vs. WEE1 selectivity” value at WEE1 (setting [4]) is on record as “W (10-<100 fold)”.
With `Cc1ccc(O)c(C)c1NC(=O)c1cnc(Nc2cc3ccccn3n2)s1` [BAA-048, N-(3-hydroxy-2,6-dimethyl-phenyl)-2-(pyrazolo[1,5-a]pyridin-2-ylamino)thiazole-5-carboxamide], the IC50 is 0.05 to 1 µM against Human PKMYT1 (setting [2]) and over 11 µM on WEE1 (setting [3]). The “PKMYT1 vs. WEE1 selectivity” value at WEE1 (setting [4]) was “Y (1000-5000 fold)”.
On the same counts, the results for `Cc1ccc(O)c(C)c1NC(=O)c1cnc(N[C@H](C)c2ccccc2)s1` [BAA-354, (R)-N-(3-hydroxy-2,6-dimethylphenyl)-2-((1-phenylethyl)amino) thiazole-5-carboxamide] are 1 to 11 µM, over 11 µM and “W (10-<100 fold)”.
In the case of `Cc1ccc(O)c(C)c1NC(=O)c1cnc(Nc2cccc(C(=O)N3CC(F)(F)C(F)(F)C3)c2)s1` [BAA-261, N-(3-hydroxy-2,6-dimethylphenyl)-2-((3-(3,3,4,4-tetrafluoropyrrolidine-1-carbonyl)phenyl)amino)thiazole-5-carboxamide], the values for the IC50 on Human PKMYT1 (setting [2]) and against WEE1 (setting [3]) were 0.05 to 1 µM and over 11 µM, respectively. The “PKMYT1 vs. WEE1 selectivity” value on WEE1 (setting [4]) is “X (100-<1000 fold)”.
Taken in the same sequence, the figures for `Cc1ccc(O)c(C)c1NC(=O)c1cnc(Nc2c(C)cnn2Cc2cccc(F)c2)s1` [BAA-375, 2-((1-(3-Fluorobenzyl)-4-methyl-1H-pyrazol-5-yl)amino)-N-(3-hydroxy-2,6-dimethylphenyl)thiazole-5-carboxamide] were 1 to 11 µM, over 11 µM and “W (10-<100 fold)”.
With `CCc1c(O)ccc(C)c1NC(=O)c1cnc(Nc2ccn(CC(=O)N3CCCC3)n2)s1` [BAA-475, N-(2-ethyl-3-hydroxy-6-methylphenyl)-2-((1-(2-oxo-2-(pyrrolidin-1-yl)ethyl)-1H-pyrazol-3-yl)amino) thiazole-5-carboxamide], the IC50 was under 0.05 µM against Human PKMYT1 (setting [1]) and over 11 µM against WEE1 (WEE1 15 nM, banded values). In addition, the “PKMYT1 vs. WEE1 selectivity” value on WEE1 (banded) was “Y (1000-5000 fold)”.
In the case of `Cc1ccc(O)c(C)c1NC(=O)c1cnc(Nc2ccn(CC(=O)NCCN3CCNCC3)n2)s1` [BAA-228, N-(3-hydroxy-2,6-dimethylphenyl)-2-((1-(2-oxo-2-((2-(piperazin-1-yl)ethyl)amino)ethyl)-1H-pyrazol-3-yl)amino)thiazole-5-carboxamide], the figures for the IC50 against Human PKMYT1 (setting [2]) and against WEE1 (setting [3]) were under 0.05 µM and over 11 µM, respectively. In addition, on WEE1 (setting [4]), the “PKMYT1 vs. WEE1 selectivity” value is “X (100-<1000 fold)”.
Taken in the same sequence, the figures for `Cc1ccc(O)c(C)c1NC(=O)c1cnc(Nc2ccn([C@@H]3CCN(C(=O)Cc4ccc(N)cc4)C3)n2)s1` [BAA-106, 2-[[1-[(3R)-1-[2-(4-Aminophenyl)acetyl]pyrrolidin-3-yl]pyrazol-3-yl]amino]-N-(3-hydroxy-2,6-dimethyl-phenyl)thiazole-5-carboxamide] were under 0.05 µM, over 11 µM and “>Y (1000-5000 fold)”.
As to `Cc1ccc(O)c(C)c1NC(=O)c1cnc(Nc2ccn(CC(=O)NC3CCOCC3)n2)s1` [BAA-195], the IC50 is under 0.05 µM against Human PKMYT1 (setting [2]) and over 11 µM at WEE1 (setting [3]). Also, on WEE1 (setting [4]), the “PKMYT1 vs. WEE1 selectivity” value was “Y (1000-5000 fold)”.
Taken in the same sequence, the figures for `COCCNc1ncc(C(=O)Nc2c(C)ccc(O)c2C)s1` [BAA-063, N-(3-hydroxy-2,6-dimethyl-phenyl)-2-(2-methoxyethylamino)thiazole-5-carboxamide] were 1 to 11 µM, over 11 µM and “>W (10-<100 fold)”.

The values are drawn from patent US20260297042A1, “BIARYLAMIDE DERIVATIVES AND THEIR USE AS PKMYT1 INHIBITORS” (CANCER RESEARCH TECHNOLOGY LIMITED, priority 2023, published 2026).
